Test results from patent publication US6331646A, “Amorphous N-[N-(3,3-dimethylbutyl)-L-α-aspartyl]-L-phenylalanine 1-methyl ester” (The NutraSweet Co., priority 1999, dated 2001).
Read-outs that look alike come from different tables or passages of the source.

Columns and labels:
[1] = Solubility measurements in several solvent systems; type: physicochemical; conditions: for Solubility, 10:90 EtOH:H2 O: 10:90 Ethanol (EtOH):H2 O; for Solubility, 50:50 EtAc:Hexane: 50:50 Ethyl Acetate (EtAc):Hexane
Experimental: (§1) 25 grams of neotame was spread out equally on six containers and heated slowly past its melting point of about 82° C. until a temperature of about 92° C. was reached. […] Once 92° C. was reached, all of the neotame was melted. The containers containing the neotame were removed from the oven and allowed to cool to room temperature, about 23° C. The neotame was removed from the containers, and ground to a […] powder with a mortar and pestle. The x-ray diffraction pattern of the resulting amorphous neotame is illustrated in FIG. 1. Rates of dissolution and solubility measurements were then determined in several different solvent systems (deionized water; 0.1M phosphate (pH3) in water; 10:90 Ethanol (EtOH):H2 O; and 50:50 Ethyl Acetate (EtAc):Hexane) and compared to the conventional form of the neotame monohydrate.

[2] = Rate of dissolution compared to neotame monohydrate; type: physicochemical; conditions: in a variety of solvents commonly used in the food industry; FIG. 3 and FIG. 4 at 20° C.
Experimental: as §1, with “monohydrate. The solubility results are set forth below:” for “monohydrate.”
FIG. 3 illustrates a comparison of the dissolution of the amorphous neotame of Example 1 with neotame monohydrate in deionized water at 20° C. FIG. 4 illustrates a similar comparison in 0.1 M phosphate buffer.

Sweetening potency = conditions: amorphous neotame; "is believed to have"
[3] = known sweetener neotame; cited from earlier work

Compound	Solubility, 0.1 M Phosphate pH3 ([1]; 0.1M phosphate (pH3) in water)	Solubility, 10:90 EtOH:H2 O [1]	Solubility, 50:50 EtAc:Hexane [1]	Solubility, Water ([1]; deionized water)	solubility compared to that of the monohydrate form ([1]; in a variety of solvents commonly used in the food industry)	rate of dissolution compared to that of the monohydrate form [2]	sweetening potency relative to aspartame (believed) (Sweetening potency)	solubility ([1]; 0.1 m phosphate, pH 3, 0.1M phosphate (pH3) in water, read-out: Solubility, 0.1 M Phosphate pH3) [mg/mL]	solubility ([1]; water, deionized water, read-out: Solubility, Water) [mg/mL]	sweetening potency relative to aspartame [3]	sweetening potency relative to sucrose [3]
COC(=O)[C@H](Cc1ccccc1)NC(=O)[C@H](CC(=O)O)NCCC(C)(C)C [Example 1, amorphous N-[N-(3,3-dimethylbutyl)-L-α-aspartyl]-L-phenylalanine 1-methyl ester]	1.49 grams of neotame/100 grams sol	1.57 grams of neotame/100 grams sol	3.07 grams of neotame/100 grams sol	1.35 grams of neotame/100 grams sol	higher solubility	reduced rate of dissolution	around 40 times that of aspartame				
COC(=O)[C@H](Cc1ccccc1)NC(=O)[C@H](CC(=O)O)NCCC(C)(C)C [Neotame Monohydrate, N-[N-(3,3-dimethylbutyl)-L-α-aspartyl]-L-phenylalanine 1-methyl ester]		1.55 grams of neotame/100 grams sol	1.29 grams of neotame/100 grams sol					13.5	12.8		
COC(=O)[C@H](Cc1ccccc1)NC(=O)[C@H](CC(=O)O)NCCC(C)(C)C [Neotame, N-[N-(3,3-dimethylbutyl)-L-α-aspartyl]-L-phenylalanine 1-methyl ester]										about 40 times that of aspartame	about 8,000 times that of sucrose
